The source of these data is patent publication US5602125A, “Thienodiazepine derivatives as cholecystokinin and gastrin antagonists” (Merck, Sharp & Dohme, Ltd., priority 1992, dated 1997).

In one test the target is T1, CCK-A (Rattus norvegicus, UniProt P30551).
T1 construct: ^125 I-CCK from rat pancreas (CCK-A); from tissue; host or cells: rat pancreas
T1 sequence (P30551 1-444): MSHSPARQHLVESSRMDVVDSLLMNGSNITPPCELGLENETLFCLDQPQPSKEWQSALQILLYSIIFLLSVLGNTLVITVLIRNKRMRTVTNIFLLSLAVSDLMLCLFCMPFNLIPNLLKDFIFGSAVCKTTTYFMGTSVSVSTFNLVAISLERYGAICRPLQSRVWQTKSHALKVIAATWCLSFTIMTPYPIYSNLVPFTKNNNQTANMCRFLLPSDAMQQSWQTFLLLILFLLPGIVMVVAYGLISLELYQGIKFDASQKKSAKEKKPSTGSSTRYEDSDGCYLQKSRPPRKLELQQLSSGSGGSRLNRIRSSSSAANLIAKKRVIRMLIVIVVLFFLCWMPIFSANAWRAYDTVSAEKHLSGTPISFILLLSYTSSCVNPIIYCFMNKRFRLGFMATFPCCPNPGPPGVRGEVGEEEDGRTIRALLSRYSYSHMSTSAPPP
The test can be described thus: displacement of 125I-CCK from rat pancreas (CCK-A). The settings on record: 50% displacement of specific 125I-CCK, read-out: CCK receptor binding IC50, 125I-CCK Pancreas. How it is done:
(§1) The CCK-A and CCK-B antagonising activity of the compounds described herein was evaluated using the assays described in published European patent application no. 0514133. The method essentially involves determining the concentration of the test compound required to displace 50% of the specific ^125 I-CCK from rat pancreas (CCK-A) or guinea pig brain (CCK-B). The data in Table 1 were obtained for the compound of Example 1.

A further test has as its target T2, CCK-B (Cavia porcellus, UniProt H0VZC5).
T2 construct: guinea pig brain (CCK-B); from tissue; host or cells: guinea pig brain
Put plainly: displacement of 125I-CCK from guinea pig brain (CCK-B). The format is binding. How it is done:
as §1

T2 sequence (H0VZC5 entry or part of it): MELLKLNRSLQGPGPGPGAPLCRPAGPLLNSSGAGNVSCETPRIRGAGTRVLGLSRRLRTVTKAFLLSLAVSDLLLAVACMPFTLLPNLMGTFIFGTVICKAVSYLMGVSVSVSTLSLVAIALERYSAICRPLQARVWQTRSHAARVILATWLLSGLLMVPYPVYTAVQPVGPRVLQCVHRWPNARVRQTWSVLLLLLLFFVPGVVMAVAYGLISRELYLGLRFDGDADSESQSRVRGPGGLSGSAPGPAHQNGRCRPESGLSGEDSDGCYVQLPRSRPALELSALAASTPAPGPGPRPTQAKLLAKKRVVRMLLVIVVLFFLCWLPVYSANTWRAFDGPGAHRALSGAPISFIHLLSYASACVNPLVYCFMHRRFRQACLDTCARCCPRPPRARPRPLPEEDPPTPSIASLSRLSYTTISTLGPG

Consider `Cc1cccc(NC(=O)NC2N=C(C3CCCCC3)c3ccsc3N(C)C2=O)c1` (racemic) [Example 1, N-[3(R,S)-5-cyclohexyl-2,3-dihydro-1-methyl-2-oxo-1H-1,4-thienodiazepine-3-yl]-N'-(3-methylphenyl) urea], for which the 50% inhibitory concentration (IC50) at CCK-A came to 6.7 nM; at CCK-B it was 46 nM.
